Common to all, as to type: cell-based
Experiment [1] has as its system RNAIII transcription of various S. aureus strains.
Experiment [2] concerns agr transcription of S. aureus RN6390B.
In experiment [3] the test system is RNAIII transcription of S. aureus RN6607.
The test system of experiment [4] is RNAIII transcription of S. aureus RN8463.

No end group written: not given here.

DICNAYF [S. lugdunensis pheromone]: in experiment [1], the “S. aureus strains tested in which the agr response is inhibited” value is 5 of 6.
“GVNACSSLF [peptide from RN6607, peptide purified from supernatant of strain with cloned agrBD genes of RN6607]”: the entries for the “Effect of purified peptide on RNAIII transcription” value (“Effect of purified peptide” below) in experiment [2], in experiment [3] and in experiment [4] were “inhibitor effect”, “activator effect” and “inhibitor effect”, respectively.
On to “YINCDFLL [peptide from RN8463, peptide purified from supernatant of strain with cloned agrBD genes of RN8463]”, for which the “Effect of purified peptide” value is on record as “inhibitor effect” in experiment [2], “inhibitor effect” in experiment [3] and “activator effect” in experiment [4].
On to YSTCDFIM [activator peptide], for which the results for the “Effect of purified peptide” value in experiment [2], in experiment [3] and in experiment [4] were “activator effect”, “inhibitor effect” and “inhibitor effect”, respectively.

Source of the values: patent US6447786B1, “Blocking expression of virulence factors in S. aureus” (New York University, priority 1994, dated 2002).
